Data as given in US7230096B2, “Inhibitors against galectins” (priority 2001, dated 2007).

Legend:
[1] = biological target: T1, recombinant human galectin-3 (Homo sapiens, UniProt P17931); assay: Inhibition of galectin-3 binding to Galα3Galβ4GlcNAcβ-HRP conjugate (galectin-3 coated microwells); conditions: for IC50: competitive inhibition of Galα3Galβ4GlcNAcβ trisaccharide:HRP conjugate binding to galectin-3 coated microwells, five-fold serial dilutions; for Krel: ratio of IC50 of reference compound 25 and IC50 of the inhibitor
T1 construct: made in house; host or cells: Escherichia coli
T1 sequence (P17931 whole entry): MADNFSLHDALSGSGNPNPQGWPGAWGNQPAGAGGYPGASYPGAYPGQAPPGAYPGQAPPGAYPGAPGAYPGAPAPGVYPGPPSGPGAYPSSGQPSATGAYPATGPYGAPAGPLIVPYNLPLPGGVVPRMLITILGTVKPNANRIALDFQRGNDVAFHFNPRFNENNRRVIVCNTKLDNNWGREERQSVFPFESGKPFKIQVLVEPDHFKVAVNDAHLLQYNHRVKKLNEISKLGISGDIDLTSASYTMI
Method: NMR-spectra were recorded with a Bruker DRX-400 instrument. Chemical shifts are given in ppm, with reference to internal CHCl3 (δ 7.26 ppm) or HDO (δ 4.81 ppm). Chemical shifts and coupling constants were obtained from ^1H-NMR and proton resonances were assigned from COSY experiments. High-resolution FAB mass spectra (HRMS) were recorded with a JEOL SX-120 instrument. MALDI-TOF Spectra were recorded with a Bruker, Biflex instrument. Column chromatography was performed on SiO2 (Matrex, 60 Å, 35–70 μm, Grace Amicon) and TLC was carried out on SiO2 60 F254 (Merck) with detection under UV light and developed with aqueous sulfuric acid. Concentrations were made using rotary evaporation with bath temperature at or below 40° C. CH2Cl2 and CH3CN were dried by distillation from CaH2. Pyridine was dried over 4 Å molecular sieves. DMF was distilled and dried over 4 Å molecular sieves. MeOH and EtOH were dried over 3 Å molecular sieves. Microwell plates were from Nalge Nunc International (Nunc-immuno plate, maxisorp surface). PBS containing 0.05% Tween 20 is abbreviated PBS-T and PBS-T containing 1% BSA is abbreviated PBSA-T. Recombinant human galectin-3 was produced in Escherichia coli and purified as previously described (S. M. Massa et al, 1993). […] Microwell plates were developed with a TMB-peroxidase substrate kit (BioRad 172–1066) according to the manufacturers recommendations.
The compounds prepared above (12–24) were tested for their ability to inhibiting the binding of galectin-3 to a Galα3Galβ4GlcNAcβ trisaccharide:horseradish peroxidase conjugate.
Screening experiments. […] The wells were washed with PBS-T after 1 hour incubation at room temperature; followed by development with the TMB-peroxidase substrate kit. The reaction was stopped after 60 min by addition of 1N sulfuric acid (100 μL/well) and optical density was read at 450 nm. Each experiment was conducted twice with each sample in duplicate. […] Microtiter plate wells were coated with recombinant galectin-3 (10 μg/ml, 50 μl/well) from E. coli at 4° C. overnight, then washed three times with PBS-T. The wells were blocked with PBSA-T (100 μl/well) for 1 hour at room temperature, followed by washing with PBS-T. To the first well was added 125 μL of inhibitors 16, 18–19and 25 (0.2 mM in PBS-T). A five-fold serial dilution was performed by transfering 25 μL from the first well to a second well containing 100 μL PBS-T, mixing, then transfering 25 μL from the second well to a third well also containing 100 μL PBS-T, and so on to the eight well from which 25 μL were discarded. The dilution series was done in duplicate. […] Incubation, washing, and detection was performed as described above. The data was analyzed with non-linear regression analysis using the program Kaleidagraph™ from Synergy Software.

galectins = conditions: cited from earlier work

IC50 [1] [µM] | Krel [1] | inhibition at 40 µM ([1]; 40 μM inhibitor concentration, screening experiment, read-out: Percent inhibition of Galα3Galβ4GlcNAcβ:HRP conjugate binding to galectin-3) [%] | SMILES | affinity relative to lactose (times lower) (galectins; galectins, compared with lactose) | Kd (galectins; all galectins) [µM]
23 | 9 |  | CO[C@@H]1O[C@H](CO)[C@@H](O[C@@H]2O[C@H](CO)[C@H](O)[C@H](NC(=O)c3ccccc3)[C@H]2O)[C@H](O)[C@H]1NC(C)=O [Compound 16, methyl 2-acetamido-2-deoxy-4-O-(3-benzamido-3-deoxy-β-D-galactopyranosyl)-β-D-glucopyranoside] |  | 
4.8 | 41 |  | COc1c(F)c(F)c(C(=O)N[C@H]2[C@@H](O)[C@@H](CO)O[C@@H](O[C@H]3[C@H](O)[C@@H](NC(C)=O)[C@H](OC)O[C@@H]3CO)[C@@H]2O)c(F)c1F [Compound 18, methyl 2-acetamido-2-deoxy-4-O-(3-[4-methoxy-2,3,5,6-tetrafluorobenzamido]-3-deoxy-β-D-galactopyranosyl)-β-D-glucopyranoside] |  | 
11.2 | 18 |  | CO[C@@H]1O[C@H](CO)[C@@H](O[C@@H]2O[C@H](CO)[C@H](O)[C@H](NC(=O)c3c(F)c(F)c(F)c(F)c3C(=O)O)[C@H]2O)[C@H](O)[C@H]1NC(C)=O [Compound 19, methyl 2-acetamido-2-deoxy-4-O-(3-[2-carboxy-3,4,5,6-tetrafluorobenzamido]-3-deoxy-β-D-galactopyranosyl)-β-D-glucopyranoside] |  | 
199 | 1 | 13 | CO[C@@H]1O[C@H](CO)[C@@H](O[C@@H]2O[C@H](CO)[C@H](O)[C@H](O)[C@H]2O)[C@H](O)[C@H]1NC(C)=O [Compound 25, methyl 4-O-β-D-galactopyranosyl-2-acetamido-2-deoxy-β-D-glucopyranoside, reference compound] |  | 
 |  |  | O=C[C@H](O)[C@@H](O)[C@@H](O)[C@H](O)CO [D-galactose] | 50–100 times lower | 
 |  |  | OC[C@H]1O[C@@H](O[C@H]2[C@H](O)[C@@H](O)C(O)O[C@@H]2CO)[C@H](O)[C@@H](O)[C@H]1O (some centres unmarked) [lactose] |  | 500 to 1000
